Earlier results, collected in patent publication US8158648B2, “Heteroaryl 11-beta hydroxysteroid dehydrogenase type I inhibitors” (priority 2005, dated 2012).

Tested on: hepatic glucose production
Details: mildly overweight individuals with type 2 diabetes, seven days, versus placebo

Structure (SMILES): CC1(C)[C@@H](OC(=O)CCC(=O)O)CC[C@]2(C)[C@H]3C(=O)C=C4[C@@H]5C[C@@](C)(C(=O)O)CC[C@]5(C)CC[C@@]4(C)[C@]3(C)CC[C@@H]12 [carbenoxolone]
- hepatic glucose production: decrease in hepatic glucose production
